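Results reflect a 48-hour exposure of cells in 96-well plates to compound at five concentrations. GI50 is the concentration that inhibits growth by half. TGI: concentration producing complete growth inhibition.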
What was measured:
Assay in all cases: NCI anticancer screen, dose series, 48 h
MOLT-4 leukemia = system: MOLT-4 leukemia
COLO 205 colon = system: COLO 205 colon
HOP-92 NSCLC = system: HOP-92 NSCLC
CAKI-1 renal = system: CAKI-1 renal
UO-31 renal = system: UO-31 renal
SF-268 CNS = system: SF-268 CNS
HCT-116 colon = system: HCT-116 colon
HCC-2998 colon = system: HCC-2998 colon
OVCAR-3 ovarian = system: OVCAR-3 ovarian

Row | SMILES | GI50 (MOLT-4 leukemia) [µM] | TGI (MOLT-4 leukemia) [µM] | GI50 (COLO 205 colon) [µM] | TGI (COLO 205 colon) [µM] | GI50 (HOP-92 NSCLC) [µM] | TGI (HOP-92 NSCLC) [µM] | GI50 (CAKI-1 renal) [µM] | TGI (CAKI-1 renal) [µM] | GI50 (UO-31 renal) [µM] | TGI (UO-31 renal) [µM] | GI50 (SF-268 CNS) [µM] | TGI (SF-268 CNS) [µM] | GI50 (HCT-116 colon) [µM] | TGI (HCT-116 colon) [µM] | GI50 (HCC-2998 colon) [µM] | TGI (HCC-2998 colon) [µM] | GI50 (OVCAR-3 ovarian) [µM] | TGI (OVCAR-3 ovarian) [µM]
1 | CCOc1ccccc1-n1c(CN2CCN(C(=O)COc3ccc(CNCCCCCCN4C5CCCC4CC(OC(=O)Nc4cc(C)ccc4OC)C5)cc3)CC2)nc2ccccc2c1=O (stereo unspecified) | 0.68 | 1.5 | 1.78 | 3.69 | 1.37 | 2.76 | 1.63 | 3.06 | 4.07 | 8.15 | 1.44 | 2.99 | 0.616 | 1.32 | 1.57 | 3.15 | 1.78 | 3.49
2 | COc1cc2nc(-c3ccc(C(F)(F)F)cc3)cc(OCCCN3CCC(O)CC3)c2cc1OC | 3.27 | 18.4 | 0.456 | 12.1 | 1.68 | 9.64 | 0.376 | 13.1 | 2.71 | 14.6 | 5.76 | 24.7 | 0.671 | 17.2 | 4.07 | 19.9 | 6.1 | 22.2
3 | Cc1ccc(-c2nnc(-c3ccc4ccccc4c3)o2)cc1 | – | > 26.6 | – | > 100 | – | > 100 | – | > 86.8 | – | > 100 | – | > 100 | – | > 100 | – | > 100 | – | > 100
4 | COc1ccc(-c2cc(-c3ccc(Nc4nc(Nc5ccccc5)nc(Nc5ccc(Cl)cc5)n4)cc3)nc(N)c2C#N)cc1 | 0.958 | > 50 | 1 | 2.15 | 0.782 | 2.62 | 0.705 | 1.49 | 0.72 | 1.49 | 1.04 | 2.49 | 0.675 | 1.37 | 1.41 | 4.41 | 0.761 | 1.52
5 | COc1cc2c(c(OC)c1O)C(=O)C(OC)C(c1ccc(O)c(O)c1)O2 (stereo unspecified) | 0.482 | > 100 | 23.5 | > 82.8 | 0.697 | > 28.9 | 0.336 | > 100 | 0.53 | > 100 | 1.5 | > 100 | 0.396 | > 100 | 0.645 | > 100 | 0.343 | > 32.7
6 | CCN(CC)CC(C(=O)Nc1c(C)cccc1C)/C(C)=N\NC(=O)C[N+](C)(C)C (stereo unspecified) | – | > 100 | – | > 100 | – | > 100 | – | > 100 | – | > 100 | – | > 100 | – | > 100 | – | > 100 | – | > 100
7 | CC(=O)[O][Hg][c]1c(N)c(C)cc(C)c1F | 1.22 | 7.12 | 1.91 | 3.53 | 1.53 | 2.92 | 3.4 | 12.4 | 1.64 | 3.15 | 1.22 | 2.7 | 1.88 | 3.92 | 2.28 | 4.87 | 1.01 | 2.28
8 | NC(CSC(c1ccccc1)(c1ccccc1)c1ccc2c(c1)OCO2)C(=O)O (stereo unspecified) | 0.631 | 17 | 0.325 | 1.15 | 0.75 | 36.9 | 5.14 | > 100 | 9.6 | > 100 | 0.82 | > 77.6 | 0.358 | 29.6 | 0.35 | 3.49 | 0.512 | 16.4
9 | CSc1ccccc1C#C/C=C\C#Cc1ccccc1N1CCCC1=O | – | > 17.6 | – | > 12.6 | – | > 50 | > 10.3 | > 50 | – | > 50 | > 10.2 | > 50 | – | > 50 | – | > 33.8 | – | > 14
10 | O=C(CN1CCN(c2cc3c(cc2F)c(=O)c(C(=O)N/N=C/c2ccccc2O)cn3C2CC2)CC1)N/N=C\c1ccccc1O | 0.267 | > 100 | 0.371 | > 100 | 2.15 | > 100 | 1.1 | > 100 | 0.359 | > 100 | 0.474 | > 100 | 0.443 | > 100 | 0.615 | > 100 | 0.269 | > 100
11 | Cc1cc(=O)n2[nH]c(-c3ccc(C(C)(C)C)cc3)cc2n1 | 6.56 | > 100 | 11.3 | > 100 | 6.6 | 51.6 | 2.6 | 32.7 | 3.17 | > 100 | 7.85 | 72.8 | 8.25 | > 100 | 8.59 | > 100 | 3.24 | 43.5
12 | O=C(Nc1ccc(F)cc1F)c1cc(I)ccc1O | 3.15 | 16.3 | 5.95 | 21.7 | 1.2 | 4.65 | 1.92 | 6.49 | 1.63 | 6.11 | 3 | 47.4 | 2.53 | 7.6 | 3.73 | 47 | 3.13 | 23.2
